{"source": "patent US20060264423A1", "about": "(BIOENVISION, INC., priority 2005, published 2006)", "key": {"[1]": {"conditions": "in vivo; cited from earlier work"}, "Herpes B": {"tested_on": "Herpes B", "conditions": "cited from earlier work"}, "[2]": {"conditions": "in vivo; cited from earlier work", "remark": "listed apart in the source"}, "[3]": {"conditions": "in vivo; cited from earlier work", "remark": "listed apart in the source"}, "[4]": {"conditions": "sheep; cited from earlier work"}, "[5]": {"conditions": "sheep; doses as high as 50 mg/kg; cited from earlier work"}, "[6]": {"conditions": "in vivo; cited from earlier work", "remark": "listed apart in the source"}, "[7]": {"conditions": "cited from earlier work"}, "hepatitis C, genotype 4": {"tested_on": "hepatitis C, genotype 4", "test": "Open label clinical trial of oral methylene blue, reduction in hepatitis C viral load measured by PCR"}, "chronic hepatitis B or C": {"tested_on": "chronic hepatitis B or C", "conditions": "patients with chronic hepatitis B or C; cited from earlier work"}, "[8]": {"conditions": "at 50 days, of the 23 responders"}}, "note": "Read-outs that look alike come from different tables or passages of the source.", "data": [{"molecule": "CC(=O)OCC(CCn1cnc2cnc(N)nc21)COC(C)=O", "note": "[famciclovir]", "values": [{"measurement": "oral bioavailability superior to that of oral acyclovir", "setting": "[1]", "result": "3-5 times"}]}, {"molecule": "Nc1nc(O)c2ncn(COC(CO)CO)c2n1", "note": "[Ganciclovir]", "values": [{"measurement": "sensitivity of the virus in vitro", "setting": "Herpes B", "result": "sensitive"}]}, {"molecule": "Nc1nc2c(ncn2COCCO)c(=O)[nH]1", "note": "[Acyclovir]", "values": [{"measurement": "sensitivity of the virus in vitro", "setting": "Herpes B", "result": "sensitive"}]}, {"molecule": "CC(C)[C@H](N)C(=O)OCCOCn1cnc2c(=O)[nH]c(N)nc21", "note": "[Valaciclovir]", "values": [{"measurement": "oral bioavailability superior to that of oral acyclovir", "setting": "[1]", "result": "3-5 times"}]}, {"molecule": "CN(C)c1ccc2nc3ccc(N(C)C)cc3[s+]c2c1", "note": "[methylene blue, 3,7-Bis(dimethylamino)-phenothiazin-5-ium chloride]", "values": [{"measurement": "oral absorption (range)", "setting": "[2]", "result": "55% to 97"}, {"measurement": "absorption from the GI tract", "setting": "[3]", "result": "absorbed well"}, {"measurement": "overall elimination rate constant", "setting": "[4]", "result": "0.0076 ± 0.0016", "unit": "min⁻¹"}, {"measurement": "methemoglobin production", "setting": "[5]", "result": "minimal methemoglobin production"}, {"measurement": "crossing of the blood-milk barrier", "setting": "[6]", "result": "crosses the blood-milk barrier easily"}, {"measurement": "side effects", "setting": "[7]; adult humans, one week to 19 months, 100 mg b.i.d. or t.i.d. orally or 100 mg intravenously", "result": "minimal side effects"}, {"measurement": "side effects", "setting": "[7]; recommended dose 50 to 300 mg by mouth, 1 to 4 mg/kg intravenously", "result": "blue urine, occasional nausea, anemia and fever"}, {"measurement": "decrease in viral count", "setting": "hepatitis C, genotype 4; 23 patients (of 25, genotype 4), at 50 days", "result": "70-100%"}, {"measurement": "non-responders", "setting": "hepatitis C, genotype 4; at 50 days, 25 patients, genotype 4", "result": "Two"}, {"measurement": "responders with between 0.7-1 log reduction in viral load", "setting": "hepatitis C, genotype 4; [8]", "result": "12 (52%) patients (%)"}, {"measurement": "responders with between 1-2 log reduction in viral load", "setting": "hepatitis C, genotype 4; [8]", "result": "6 (26%) patients (%)"}, {"measurement": "responders with viral clearance", "setting": "hepatitis C, genotype 4; [8]", "result": "5 (22%) patients (%)"}, {"measurement": "drop in viral load", "setting": "hepatitis C, genotype 4; interim results, 8 of 9 patients, within the first 50 days", "result": "62%-100"}, {"measurement": "patients with between greater than or equal to 0.6 log to less than or equal to 1 log reduction in viral load", "setting": "hepatitis C, genotype 4; interim results, first 9 patients, 50 days of treatment", "result": 89, "unit": "%"}, {"measurement": "patients with a greater than or equal to two log reduction in viral load", "setting": "hepatitis C, genotype 4; interim results, first 9 patients, 50 days of treatment, 65 mg twice daily oral", "result": 33, "unit": "%"}, {"measurement": "efficacy in treating hepatitis C (conclusion)", "setting": "hepatitis C, genotype 4; overall conclusion of the trial results", "result": "highly efficacious"}]}, {"molecule": "Interferon alpha", "values": [{"measurement": "patients in whom treatment is effective", "setting": "chronic hepatitis B or C", "result": "25-30%"}]}]}
